Source: patent publication US7985760B2, “Piperidinetriol derivatives as inhibitors of glycosyceramid synthase” (Actelion Pharmaceuticals Ltd., priority 2002, dated 2011)
Where two headings read alike, the source gives them in different places.

Assays:
[1] = target: T1, human recombinant GCS expressed in insect cells (Homo sapiens, UniProt Q16739); experiment: Inhibition of GCS; type: biochemical
T1 construct: made in house; host or cells: insect cells
T1 sequence (Q16739 1-394): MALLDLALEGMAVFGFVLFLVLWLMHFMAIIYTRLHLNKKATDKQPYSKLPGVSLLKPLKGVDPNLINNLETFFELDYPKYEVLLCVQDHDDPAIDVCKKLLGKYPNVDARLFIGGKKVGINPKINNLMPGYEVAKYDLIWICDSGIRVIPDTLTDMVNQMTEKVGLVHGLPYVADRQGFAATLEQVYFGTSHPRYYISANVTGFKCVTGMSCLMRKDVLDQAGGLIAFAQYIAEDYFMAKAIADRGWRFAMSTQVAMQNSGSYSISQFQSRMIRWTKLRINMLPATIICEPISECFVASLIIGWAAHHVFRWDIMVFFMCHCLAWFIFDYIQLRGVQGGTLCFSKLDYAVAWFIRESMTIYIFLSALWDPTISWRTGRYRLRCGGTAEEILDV

[2] = target: T2, non-lysosomal-β-glucocerebrosidase (Homo sapiens, UniProt Q9HCG7); experiment: Inhibition of non-lysosomal-β-glucocerebrosidase; type: biochemical; details: whole cell extracts of MCF7 as enzyme source; 4-MU β-glucoside substrate; pH 5.8
T2 construct: whole cell extracts of MCF7(a human breast carcinoma cell line) was used as the source of the enzyme; endogenous in cells; host or cells: MCF7 whole cell extract
T2 sequence (Q9HCG7 1-927): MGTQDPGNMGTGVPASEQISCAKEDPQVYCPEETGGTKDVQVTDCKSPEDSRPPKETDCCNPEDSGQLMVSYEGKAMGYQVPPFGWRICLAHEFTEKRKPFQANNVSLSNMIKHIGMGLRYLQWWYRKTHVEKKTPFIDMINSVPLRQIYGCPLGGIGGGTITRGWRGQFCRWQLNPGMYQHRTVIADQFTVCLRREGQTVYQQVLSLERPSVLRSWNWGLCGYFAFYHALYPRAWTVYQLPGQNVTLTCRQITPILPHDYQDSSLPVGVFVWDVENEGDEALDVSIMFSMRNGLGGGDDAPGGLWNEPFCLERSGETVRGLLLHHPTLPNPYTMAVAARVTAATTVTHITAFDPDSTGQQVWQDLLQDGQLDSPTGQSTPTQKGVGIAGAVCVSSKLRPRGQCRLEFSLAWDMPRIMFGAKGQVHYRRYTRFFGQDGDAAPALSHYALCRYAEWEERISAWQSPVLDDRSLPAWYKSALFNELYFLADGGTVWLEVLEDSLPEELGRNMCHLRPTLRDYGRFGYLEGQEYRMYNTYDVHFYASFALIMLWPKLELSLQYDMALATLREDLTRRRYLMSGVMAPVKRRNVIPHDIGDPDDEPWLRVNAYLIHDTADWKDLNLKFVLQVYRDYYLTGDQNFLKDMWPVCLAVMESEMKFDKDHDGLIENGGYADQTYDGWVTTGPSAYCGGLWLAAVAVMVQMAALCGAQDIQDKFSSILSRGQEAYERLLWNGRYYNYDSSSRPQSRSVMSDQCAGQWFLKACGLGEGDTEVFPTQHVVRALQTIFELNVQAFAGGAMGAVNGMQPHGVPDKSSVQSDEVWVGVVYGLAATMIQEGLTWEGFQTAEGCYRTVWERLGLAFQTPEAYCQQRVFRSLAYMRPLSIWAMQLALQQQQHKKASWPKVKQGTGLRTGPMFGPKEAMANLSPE

human GCS = target: T3, human GCS (Homo sapiens, UniProt Q16739); experiment: Cell-based IC50 for GCS inhibition by measuring glucosylceramide (GlcCer) depletion; details: MCF-7 cells cultured for 5-7 days; GlcCer quantified by HPTLC; read-out: Inhibition of GCS Cellular-based (IC50 μM)
T3 construct: Human mammary epithelial cells (MCF-7) were cultured for 5-7 days, with varying concentrations of a compound of the invention; endogenous in cells; host or cells: MCF-7
T3 sequence (Q16739 1-394): T1 sequence (Q16739 1-394)

[3] = human recombinant GCS expressed in insect cells, read-out: Inhibition of GCS (IC50)

Compound | IC50 [1, 3] | IC50 [2] | IC50 (human GCS) | IC50 [1]
OC[C@H]1[C@@H](O)[C@H](O)[C@@H](O)CN1Cc1ccc(OCc2ccccc2)cc1 [Example 11, 3,4,5-Piperidinetriol, 2-(hydroxymethyl)-1-[[4-(phenylmethoxy)phenyl]methyl]-, (2S,3R,4R,5S)] | 210 nM | 3 nM | < 0.01 µM | 
OC[C@H]1[C@@H](O)[C@H](O)[C@@H](O)CN1Cc1ccc2c(c1)OCCO2 [Example 20, 3,4,5-Piperidinetriol, 1-[(3,4-ethylenedioxyphenyl)methyl]-2-(hydroxymethyl)-, (2S,3R,4R,5S)] | 2500 nM | 55 nM |  | 
O=C(NCc1ccc(F)cc1)c1ccc(CN2C[C@H](O)[C@@H](O)[C@H](O)[C@@H]2CO)cc1 [Example 6, Benzamide, N-[(4-fluorophenyl)methyl]-4-[[(2S,3R,4R,5S)-3,4,5-trihydroxy-2-(hydroxymethyl)-1-piperldinyl]methyl]-,] | 670 nM | 69 nM |  | 
CN(C)c1ccc(CN2C[C@H](O)[C@@H](O)[C@H](O)[C@@H]2CO)c(F)c1C#N [Example 3, 3,4,5-Piperidinetriol, 1-[(3-cyano-4-dimethylamino-2-fluorophenyl)methyl]-2-(hydroxymethyl)-, (2S,3R,4R,5S)] | 1800 nM | 750 nM |  | 
OC[C@H]1[C@@H](O)[C@H](O)[C@@H](O)CN1Cc1ccc(/C=C/c2ccccc2)cc1 [Example 13, 3,4,5-Piperidinetriol, 1-[(4-trans-styrylphenyl)methyl]-2-(hydroxymethyl)-, (2S,3R,4R,5S)] | 290 nM | 2 nM |  | 
C[C@@H](NC(=O)c1ccc(CN2C[C@H](O)[C@@H](O)[C@H](O)[C@@H]2CO)cc1)c1ccc(F)cc1 [Example 8, Benzamide, N-[1-(R)-(4-fluorophenyl)ethyl]4-[[(2S,3R,4R,5S)-3,4,5-trihydroxy-2-(hydroxymethyl)-1-piperidinyl]methyl]-,] | 490 nM | 42 nM |  | 
OC[C@H]1[C@@H](O)[C@H](O)[C@@H](O)CN1Cc1ccc(OCc2ccccc2)c(Cl)c1 [Example 10, 3,4,5-Piperidinetriol, 2-(hydroxymethyl)-1-[[3-chloro-4-(phenylmethoxy)phenyl]methyl]-, (2S,3R,4R,5S)] | 320 nM | 5 nM |  | 
CC(NC(=O)c1ccc(CN2C[C@H](O)[C@@H](O)[C@H](O)[C@@H]2CO)cc1)c1ccccc1 (stereo partly drawn) [Example 7, Benzamide, N-[1-phenylethyl]4-[[(2S,3R,4R,5S)-3,4,5-trihydroxy-2-(hydroxymethyl)-1-piperidinyl]-methyl]-,] | 280 nM | 84 nM |  | 
O=S(=O)(Nc1ccc(CN2C[C@H](O)[C@@H](O)[C@H](O)[C@@H]2CO)cc1)c1ccccc1 [Example 22, Benzenesulfonamide, N-[4-[[(2S,3S,4R,5S)-3,4,5-trihydroxy-2-(hydroxymethyl)-1-piperidinyl]methyl]-phenyl]-,] |  | 910 nM |  | 910 nM
O=C(c1ccc(CN2C[C@H](O)[C@@H](O)[C@H](O)[C@@H]2CO)cc1)N1CCCc2ccccc21 [Example 14] | 1400 nM | 19 nM |  | 
OC[C@H]1[C@@H](O)[C@H](O)[C@@H](O)CN1Cc1ccc(Oc2ccccc2)cc1 [Example 19, 3,4,5-Piperidinetriol, 2-(hydroxymethyl)-1-[(4-phenoxyphenyl)methyl]-, (2S,3R,4R,5S)] | 410 nM | 4 nM |  | 
CCN(CC)c1ccc(CN2C[C@H](O)[C@@H](O)[C@H](O)[C@@H]2CO)c(F)c1C#N [Example 18, 3,4,5-Piperidinetriol, 2-(hydroxymethyl)-1-[(3-cyano-4-(diethylamino)-2-fluorophenyl)-methyl]-, (2S,3R,4R,5S)] | 550 nM | 120 nM |  | 
COc1cc(OCc2ccccc2)ccc1CN1C[C@H](O)[C@@H](O)[C@H](O)[C@@H]1CO [Example 1, 3,4,5-Piperidinetriol, 2-(hydroxymethyl)-1-[[2-methoxy-4-(phenylmethoxy)phenyl]methyl]-, (2S,3R,4R,5S)] | 2700 nM | 110 nM |  | 
